Measurements from patent US11440906B2, “Biguanide derivatives and their rearrangement products for use in the treatment of cancer” (CENTRE NATIONAL DE LA RECHERCHE SCIENTIFIQUE, priority 2017, dated 2022).

Assays:
[1] = test system: A375 sensitive melanoma cells; assay: In vivo murine cancer model, A375 sensitive xenograft; set-up: species or system BALB/c nu/nu (nude) mice; details: 0.7 mg/mouse/day intraperitoneal
Method: (§1) Animal experiments were carried out in accordance with the Declaration of Helsinki and were approved by a local ethical committee CIEPAL (Comité Institutionnel d'Ethique Pour l'Animal de Laboratoire-Azur). Female immune-deficient BALB/c nu/nu (nude) mice were obtained at 5 weeks of age from Envigo Laboratory (Gannat, France). Nude mice were inoculated subcutaneously with A375 sensitive or resistant melanoma cells (1.0×10^6 cells/mouse). After tumor apparition (±5 days), animals received intraperitoneal injection of Labrafil (Control), PLX4032 (0.7 mg/mouse/day) or CRO15 (0.7 mg/mouse/day) dissolved in Labrafil. The growth tumor curves were determined by measuring the tumor volume using the equation V=(L*W2)/2 (V=tumor volume, W=tumor width, L=tumor length). At the end of the experiment, mice were euthanized by cervical dislocation and tumors were taken for western blot and immunofluorescence experiments (LC3, Cleaved Caspase 3). TUNEL assay was performed using the In Situ Cell Death Detection Kit (Roche, Meylan, France). The results are shown in FIGS. 3A and 3B (A375 sensitive melanoma cells), and 4B and 4C (A375 resistant melanoma cells).

[2] = test system: A375 resistant melanoma cells; assay: In vivo murine cancer model, A375 resistant xenograft; set-up: species or system BALB/c nu/nu (nude) mice; details: 0.7 mg/mouse/day intraperitoneal
Method: as §1
In Vivo Murine Cancer Model Animal experiments were carried out in accordance with the Declaration of Helsinki and were approved by a local ethical committee CIEPAL (Comite Institutionnel d'Ethique Pour l'Animal de Laboratoire-Azur). Female immune-deficient BALB/c nu/nu (nude) mice were obtained at 5 weeks of age from Envigo Laboratory (Gannat, France). Nude mice were inoculated subcutaneously with A375 resistant melanoma cells (1.0×10^6 cells/mouse). After tumor apparition (+5 days), animals received intraperitoneal injection of Labrafil (Control), PLX4032 (0.7 mg/mouse/day) or MTF319 (0.7 mg/mouse/day) dissolved in Labrafil. The growth tumor curves were determined by measuring the tumor volume using the equation V=(L*W2)/2 (V=tumor volume, W=tumor width, L=tumor length). At the end of the experiment, mice were euthanized by cervical dislocation.

murine melanoma BP cells = assay: Murine melanoma BP cells allografted into C57BL6 mice; assay type: in vivo, C57BL6/J mice; details: BP cells allograft, immunocompetent C57BL/6, 0.7 mg/mouse/day intraperitoneal; FIG. 7A
Method: In Vivo Murine Cancer Model Animal experiments were carried out in accordance with the Declaration of Helsinki and were approved by a local ethical committee CIEPAL (Comite Institutionnel d'Ethique Pour l'Animal de Laboratoire-Azur). Female C57BL6/J mice were obtained at 5 weeks of age from Envigo Laboratory (Gannat, France). Mice were inoculated subcutaneously with BP melanoma cells (1×10^6 cells/mouse). After tumor apparition (+5 days), animals received intraperitoneal injection of Labrafil (vehicle) or CRO15 (0.7 mg/mouse/day). The growth tumor curves were determined by measuring the tumor volume using the equation V=(L*W2)/2, (V=tumor volume, W=tumor width, L=tumor length). At the end of the experiment, mice were euthanized by cervical dislocation.

patient melanoma cells = assay: Viability test with CRO15, patient melanoma cells; assay type: cell-based, human; details: 5 μM, 48 hours; FIG. 1D
Method: Fresh sterile tissues were obtained from surgical waste from patients diagnosed with metastatic melanoma at the Nice CHU hospital. Epidermal cell suspensions were obtained from foreskins of Caucasian children by overnight digestion in phosphate-buffered saline containing 0.5% dispase grade II at 4° C., followed by a 20 min digestion with 0.05% trypsin-0.02% EDTA in phosphate-buffered saline (V/V) at 37° C. Human primary melanocytes were grown in MCDB153 medium supplemented with 2% FCS, 0.4 μg/ml hydrocortisone, 5 μg/ml insulin, 16 nM phorbol-12 myristate 13-acetate, 1 ng/ml basic fibroblast growth factor, 10 μg/ml bovine pituitary extract and penicillin/streptomycin (100 U/ml/50 μg/ml). […]
For trypan blue staining, […] of cells (melanoma and normal human cells) were aseptically transferred to a 1.5 mL clear Eppendorf tube and incubated for 3 min at room temperature with an equal volume of 0.4% trypan blue solution. Viable cells were counted and the results are expressed as the percentage of the value of control cells. […]
(§2) Different melanoma cell lines with various mutations, patient cells with various mutations and normal human cells, were treated with 5 μM of CRO15 for 48 hours or DMSO (Control). At the end of stimulation, viable cells were counted using the trypan blue dye exclusion method. […]

[3] = test system: Different melanoma cell lines with various mutations; assay: Viability test with CRO15, melanoma cell lines with various mutations; assay type: cell-based, human; details: 5 μM, 48 hours; FIG. 1C
Description: (§3) Different melanoma cell lines were purchased from the American Tissue Culture Collection: A375 and WM9 cells are mutated on B-Raf, CDKN2A and PTEN proteins; SKmel28 cells are mutated on B-Raf and P53 proteins; 1205Lu cells are mutated on B-Raf and PTEN proteins; G-361 cells are mutated on B-Raf and CDKN2A proteins; C8161 cells are mutated on B-Raf and K-Ras proteins; WM3912 cells are mutated on B-Raf and CDKN2A proteins; MeWo cells are mutated on P53 and CDKN2A proteins; WM3918 presents no mutations on characteristic proteins.
(§4) For trypan blue staining, […] of cells (melanoma and normal human cells) were aseptically transferred to a 1.5 mL clear Eppendorf tube and incubated for 3 min at room temperature with an equal volume of 0.4% trypan blue solution. Viable cells were counted and the results are expressed as the percentage of the value of control cells. All the experiments are performed 3 times in triplicate.
as §2, with “method. The results are normalized as percentages compare to the control and data means±SEM of three independent experiments performed in triplicate *p<0.05; **p<0.01; ***p<0.001.” for “method.”

WM9 cells = assay: Resistance development in WM9 cells after 8 weeks of drug exposure; assay type: cell-based, human; details: 8 weeks increasing concentrations, then 10 μM 48 hrs; FIG. 7B
Description: as §3, §4
To study weither melanoma cells WM9 would develop resistance to CRO15, these cells were kept in culture during 8 weeks in presence of increasing concentrations of either, DMSO (control), PLX4032, CRO15 or MTF255. The starting concentration was 0.2 μM.
Along with non-treated WM9S (naive cells), drug-treated WM9S were then stimulated with 10 μM of each drug during 48 hrs. Viable cells were counted using the trypan blue dye exclusion method. […]

SMILES: Nc1nc(Nc2ccccc2SSc2ccccc2Nc2nc(N)nc(C(Cl)(Cl)Cl)n2)nc(C(Cl)(Cl)Cl)n1 [CRO15, N2,N2′-(disulfanediylbis(2,1-phenylene))bis(6-(trichloromethyl)-1,3,5-triazine-2,4-diamine)]
- tumor volume ([1]; FIG. 3A): reduces
- tumor weight ([1]; FIG. 3B): reduces
- tumor volume ([2]; FIG. 4B, 6A): reduces
- tumor weight ([2]; FIG. 4C, 6B): reduces
- tumor growth (tumor volume) (murine melanoma BP cells): no tumor growth
- viability of patient melanoma cells (patient melanoma cells): induces a decrease of the viability
- viability of different melanoma cell lines with various mutations [3]: induces a decrease of the viability
- cell viability of WM9 after 8 weeks of treatment and stimulation with the drug (WM9 cells): still able to induce cell death
